Where two headings read alike, the source gives them in different places.
Assays:
HPRT KO T cells = experiment: 6TG IC50, T cell viability; format: cell-based; conditions: FIG. 27
Method: (§1) Such inactivation confers 6TG resistance that contrasts with the sensitivity of WT T cells to this drug. IC50 can be approximately determined to 10 nM and >100 μM for WT and HPRT KO T cells respectively.

WT T cells [1] = experiment: 6TG IC50, T cell viability; format: cell-based; conditions: FIG. 27
Method: as §1

WT T cells [2] = experiment: Clofarabine IC50, T cell viability by FACS; format: cell-based; conditions: 48 h, 2 days incubation with clofarabine 0 to 10 μM, FIG. 8, read-out: IC50 (amount of drug to decrease cell viability to 50%)
Method: (§2) FIG. 8 represents the percentage of cell viability of WT and dCK KO T cells (treated with 5 μg or 10 μg of mRNA encoding dCK2 TALE-nuclease pair) cultured for two days in the presence of increasing amount of clofarabine (10 nM to 10 μM). This graph allows to determine the Clofarabine IC50 toward both cell populations;
(§3) To further investigate the ability of T cells to resist to clofarabine, IC50 for this drug was determined on dCK KO and WT T cells. The cells were collected 3 days after transfection were incubated for 2 days in the presence of increasing concentration of clofarabine (0 to 10 μM). At the end of clofarabine incubation, viability of T cells was determined by FACS analysis2.
(§4) The results presented in FIG. 8 show clearly that the processing of dCK gene mediated by TALE-nucleases efficiently inactivates dCK activity in T cells. Such inactivation correlates to clofarabine resistance, contrasting with the sensitivity of WT T cells. The IC50 values (amount of drug to add in the media to decrease cell viability to 50%) correspond respectively to about 100 nM and 10 μM for WT and dCK KO T cells.

dCK KO T cells = experiment: Clofarabine IC50, T cell viability by FACS; format: cell-based; conditions: 48 h, 2 days incubation with clofarabine 0 to 10 μM, FIG. 8, read-out: IC50 (amount of drug to decrease cell viability to 50%)
Method: as §2, §3, §4

[3] = tested on: CAR T cells negative control; experiment: Sensitivity of CAR T cells to clofarabine and fludarabine (cell viability); format: cell-based
Method: (§7) These graphs allows determination of IC50 for both drugs clofarabine and fludarabine;
(§8) T cells were grown with or without clofarabine between D3 and D8 (see workflow 2 in FIG. 9), then they were incubated for 2 days (from D15 to D17) in media with different concentrations of clofarabine. T cells viability was then assessed by FACS analysis using the count bright kit.
(§9) These cells were then used to determined their sensitivity for clofarabine and fludarabine as performed before.

dCK/TRAC KO CAR T cells = experiment: as above; format: cell-based
Method: as §7, §8, §9

WT Daudi cells = experiment: Growth of Daudi cells in media with clofarabine; format: cell-based; conditions: clofarabine 0.1 to 1 μM, FIG. 19
Method: (§5) FIG. 19 represents the growth rate (expressed in ×10^6 cells) for a period of 7 days of KO dCK Daudi cells versus WT Daudi cells in the absence or presence of increasing amounts of clofarabine (0.1 to 1 μM);
(§6) Daudi cells were cultured in media having different concentrations of clofarabine (0; 0.1; 0.25; 0.5 and 1 μM) for several days and counted at each passage.

dCK KO Daudi cells = experiment: Growth of Daudi cells in media with clofarabine; format: cell-based; conditions: up to 1 μM clofarabine, FIG. 19
Method: as §5, §6

[4] = tested on: double KO dCK/TCAR CAR T-cells; experiment: Growth rate of double KO CAR T-cells in the presence of clofarabine; format: cell-based; conditions: 11 days, clofarabine 0.1 μM to 10 μM, FIG. 14
Method: This experiment was performed on double KO dCK/TCAR T CAR T-cells (FMC63 which is described in patent application having the filing number PCT/EP2014/059662.) by culturing these cells during 11 days in media having different clofarabine (from 0.1 μM to 10 μM).

[5] = clinically relevant dose for ALL treatment, reported by EMA; cited from earlier work

Nc1nc2nc[nH]c2c(=S)[nH]1 [6TG, 6-thioguanine]
IC50 (HPRT KO T cells): > 100000 nM
IC50 (WT T cells [1]): ~10 nM

Nc1nc(Cl)nc2c1ncn2[C@@H]1O[C@H](CO)[C@@H](O)[C@@H]1F [clofarabine]
IC50 (WT T cells [2]): ~100 nM
IC50 (dCK KO T cells): ~10000 nM
IC50 ([3]; CAR T cells negative control, FIG. 17, read-out: IC50 clofarabine): 0.1 nM
IC50 (dCK/TRAC KO CAR T cells; dCK/TRAC KO CAR T cells (FMC63), FIG. 17, read-out: IC50 clofarabine): 500 nM
growth of cells in presence of clofarabine (WT Daudi cells): clearly impaired
growth of cells in presence of clofarabine (dCK KO Daudi cells): able to grow
cell expansion in presence of clofarabine [4]: correct up to the 1 μM
Cmax [5]: 1000 nM

Nc1nc(F)nc2c1ncn2[C@@H]1O[C@H](CO)[C@@H](O)[C@@H]1O [fludarabine]
IC50 ([3]; T CAR control, FIG. 17, read-out: IC50 fludarabine): 10000 nM
IC50 (dCK/TRAC KO CAR T cells; double KO CAR T cells, FIG. 17, read-out: IC50 fludarabine): 400000 nM

From US10813951B2, “Method of engineering chemotherapy drug resistant T-cells for immunotherapy” (CELLECTIS, priority 2013, dated 2020)
